Like-named read-outs stand apart in the source and are kept apart here.
Legend:
[1] = system: S. aureus strain ATTC 29213; assay: Characterization of killing by INF 401 plus chloramphenicol (viability, morphology, protein, DNA, metal dependence); type: cell-based, Staphylococcus aureus; conditions: reversed by exogenous Fe3+
Description: Time kill study of the effect of NF 401 in combination with chloramphenicol. Exponentially growing cells (S. aureus strain 29213) were diluted to OD600 0.1 in LB supplemented with 20 μg/ml of chloramphenicol (Cm) in the presence or absence of INF 401 (2 μg/ml) and incubated with shaking at 37° C. At indicated time points cells were harvested, washed with LB and plated on LB agar plates. Number of colony forming units (CFUs) was determined after overnight incubation.
Time kill study of the effect of iron on the bactericidal activity of INF 401. S. aureus strain 29213 was grown overnight in iron-limited Staphylococcal Siderophore Detection (SSD) medium (Heinrichs, 1999) supplemented with 2 μM FeCl3, washed with SSD and diluted 1:100 into the fresh medium containing 0, 2 or 50 μm FeCl3. Exponentially growing cells were diluted to OD600 0.01 in the corresponding medium supplemented when indicated with 20 μg/ml of chloramphenicol (Cm) and 2 μg/ml of INF 401. At 0, 1, 2 and 3.5 hours cells were plated in different dilutions to the LB agar plates and number of colony forming units (CFUs) was counted next day.

S. aureus SA1199 [2] = assay: Checkerboard two-fold broth microdilution, MIC and MBC; type: cell-based, Staphylococcus aureus; conditions: for MBC^b = MBC in the presence of 5 μg/ml of INF 401: plus 5 μg/ml INF 401
Description: Checkerboard titration was performed with INF 401 and erythromycin to quantitate the effects of the combination on Staphylococcal growth using two-fold serial broth microdilution. After overnight incubation, cells were transferred to fresh medium, as described above, to determine those combinations that were bactericidal to S. aureus. […] Although not determined according to NCCLS recommended procedures ([…]), the inventors considered this the Minimal Bactericidal Concentration (MBC).
The inventors next evaluated whether INF 401 was bactericidal in combination with other protein synthesis inhibitors which are bacteriostatic to S. aureus. Checkerboard studies were performed with two-fold dilutions of each antibiotic in combination with INF 401 using the assay described above in Example 2. After overnight incubation the MIC of each antibiotic was determined by visualization of bacterial growth. […] The MBC of each antibiotic was determined as described in Example 2 in the absence or presence of INF 401.

S. pneumoniae = assay: Bactericidal activity (MBC) of translational inhibitors with or without INF 401 in S. pneumoniae; type: cell-based, Streptococcus pneumoniae; conditions: antibiotic alone
Excerpt: It would be desirable that an antibiotic potentiator of the present invention is active not only in S. aureus but also in other bacterial pathogens. The inventors have begun studies to investigate whether INF 401 can also potentiate the activity of translational inhibitors in another Gram positive pathogen, S. pneumoniae.

S. aureus SA1199 [3] = assay: Checkerboard two-fold broth microdilution, MIC and MBC; type: cell-based, Staphylococcus aureus; conditions: Table 2, plus 10 μg/ml INF 402, unit not given
S. aureus (SA1199) = assay: Time kill studies (CFU counts); type: cell-based, Staphylococcus aureus
Description: FIG. 5A, FIG. 5B and FIG. 5C. […]
The initial inoculum number was determined by plating an appropriate dilution on LB agar plates and determining the number of colony forming units (CFUs). At different time points an aliquot was withdrawn from each tube and cell viability was determined by plating an appropriate dilution and counting CFUs after overnight incubation.

S. aureus strain SA1199 = assay: Screening and titration of potentiators with erythromycin (4 μg/ml), viability read by transfer to fresh medium; type: cell-based, Staphylococcus aureus; conditions: for lowest concentration at which the potentiator is active (titration in the presence of erythromycin): erythromycin 4 μg/ml, S. aureus SA1199; for effect on viability of S. aureus in combination with a bacteriostatic concentration of erythromycin: library screen hit; for Activity (minimal concentration required to kill 99.9% of S. aureus): in the presence of 4 μg/ml erythromycin
Description: In an exemplary screening assay, in order to identify a candidate acyl hydrazide, oxy amide or 8-hydroxy quinoline composition as an antibacterial agent potentiator, the S. aureus strain SA1199 may be used. The procedure for screening is as follows: logarithmically growing S. aureus SA1199 are inoculated to a final OD600 of 0.002 into 150 μl of LB medium containing a bacteriostatic concentration of an antimicrobial agent for that strain, for example, erythromycin (4 μg/ml) at four times the Minimal Inhibitory
Concentration (MIC). […] In preliminary studies the inventors determined that under these conditions up to 2000 viable cells were transferred after incubation with erythromycin. As confirmed by broth microdilution, at least a 1000-fold reduction in viability was required to see no visible growth after 20 hours. Acyl hydrazide, oxy amide or 8-hydroxy quinoline antibiotic potentiators may be identified as those compounds that increase the bactericidal effect of the erythromycin.
The macrolide erythromycin was chosen in the initial screen for two reasons: first, its mechanism of inhibition of protein synthesis is well characterized and second, as a macrolide, erythromycin is representative of an expanding class of agents which includes the second most prescribed antibiotic, azithromycin.
In preliminary studies the inventors determined that under these conditions up to 2000 viable cells were transferred after incubation with erythromycin. As confirmed by broth microdilution, at least a 1000-fold reduction in viability was required to see no visible growth after 20 h.
Next the activity of the hit compounds was compared by titration of the compounds in the presence of erythromycin at 4 μg/ml as described above.
(§1) Activity of the compound is depicted as the minimal concentration required to kill 99.9% of S. aureus in the presence of 4 μg/ml erythromycin.

S. aureus ATCC 29213 = assay: MBEC assay system, checkerboard: planktonic MIC and biofilm MBEC; type: cell-based, Staphylococcus aureus; conditions: INF 401 at 0.3 μg/ml where in label
Description: These studies were performed via the method of Dr. Howard Ceri (University of Calgary), who recently developed a method for the routine determination of the antibiotic susceptibility of biofilms. To date, the inventors have tested the effect of the combination of INF 401 on the ability of either clindamycin or rifampin to eradicate S. aureus biofilms in vitro. S. aureus ATCC 29213 was selected for the study as previous studies of this isolate as a biofilm had been conducted and the isolate served as a quality assurance organism for NCCLS standardization of antibiotic testing. Biofilms were formed as previously described for this organism (Ceri et al., 1999) using the MBEC™ assay system. Checkerboard studies were performed with each antibiotic versus INF 401.

S. aureus SA 29213 = assay: 55Fe transport assay (intracellular iron accumulation); type: cell-based, Staphylococcus aureus; conditions: compound at 2 μg/ml; S. aureus SA 29213
Description: Next, investigated was whether INF 401 affects intracellular iron accumulation. An ^55Fe transport assay (modified from Sebulsky, 2000) was used to examine the ability of INF 401 to transport iron inside the cell. Briefly, exponentially growing cells were diluted to OD600 0.1 in LB, incubated with ^55FeCl3 for 30 min at 37° C., washed and counted in scintillation fluid using the tritium channel of a scintillation system. […] However, the presence of INF 401 in either the absence or presence of antibiotic led to a dramatic increase in iron accumulation (209,215 and 231,621 DPM, respectively).
as §1

[4] = Staphylococcus aureus, SA1199, read-out: MBC^a = MBC in the absence of INF 401, Table 1, S. aureus SA1199, antibiotic alone, unit inferred
[5] = Staphylococcus aureus, SA1199, read-out: MBC^a = MBC in the absence of INF 401, Table 2, S. aureus SA1199, antibiotic alone, unit inferred
[6] = Table 1, S. aureus SA1199, unit not given
[7] = Table 2, S. aureus SA1199, unit inferred

O=C(O)C(NCCNC(C(=O)O)c1ccccc1O)c1ccccc1O (stereo not drawn) [EDDHA]
effect of iron chelator on killing by INF 401 [1]: completely ablate killing

CC[C@H]1OC(=O)[C@H](C)[C@@H](O[C@H]2C[C@@](C)(OC)[C@@H](O)[C@H](C)O2)[C@H](C)[C@@H](O[C@@H]2O[C@H](C)C[C@H](N(C)C)[C@H]2O)[C@](C)(O)C[C@@H](C)C(=O)[C@H](C)[C@@H](O)[C@]1(C)O [Erythromycin]
bactericidal concentration of antibiotic alone as multiple of MIC (S. aureus SA1199 [2]; S. aureus, absence of INF 401): 16-32 ×MIC
Minimal Bactericidal Concentration (greater than 1000-fold decrease in cell viability), antibiotic alone (S. aureus SA1199 [2]; S. aureus, not by NCCLS procedure): 16 to 32 µg/mL
MIC (S. aureus SA1199 [2]; Staphylococcus aureus, SA1199): 1 µg/mL
MBC (S. aureus SA1199 [2]; [4]): 16 to 32 µg/mL
MBC (S. aureus SA1199 [2]; [5]): > 8 µg/mL
MBC^b = MBC in the presence of 5 μg/ml of INF 401 (S. aureus SA1199 [2]; [6]): 1
MIC (S. aureus SA1199 [2]; [7]): 1 µg/mL
bactericidal concentration in the absence of INF 401 as multiple of MIC (S. pneumoniae): 1 ×MIC
MBC^b = MBC in the presence of 10 μg/ml of INF 402 (S. aureus SA1199 [3]): 1
effect of single agent on growth of S. aureus in time kill study (S. aureus (SA1199); INF 401 5 μg/ml alone, erythromycin 2×MIC alone): bacteriostatic

CC[n+]1c(-c2ccccc2)c2cc(N)ccc2c2ccc(N)cc21 [Ethidium bromide]
MIC (S. aureus SA1199 [2]; Staphylococcus aureus, SA1199): 16 µg/mL
MBC (S. aureus SA1199 [2]; [4]): > 128 µg/mL
MBC (S. aureus SA1199 [2]; [5]): > 128 µg/mL
MBC^b = MBC in the presence of 5 μg/ml of INF 401 (S. aureus SA1199 [2]; [6]): >128
MIC (S. aureus SA1199 [2]; [7]): 16 µg/mL
MBC^b = MBC in the presence of 10 μg/ml of INF 402 (S. aureus SA1199 [3]): >128

COc1ccc(C(=O)N(O)c2ccccc2)cc1 [INF 402]
lowest concentration at which the potentiator is active (titration in the presence of erythromycin) (S. aureus strain SA1199): 1.25 to 2.5 µg/mL
effect on viability of S. aureus in combination with a bacteriostatic concentration of erythromycin (S. aureus strain SA1199): reduced the viability

Cc1cc(C)c2ccc(NN)nc2c1O [INF 406]
lowest concentration at which the potentiator is active (titration in the presence of erythromycin) (S. aureus strain SA1199): 0.6 µg/mL
effect on viability of S. aureus in combination with a bacteriostatic concentration of erythromycin (S. aureus strain SA1199): reduced the viability

CO[C@H]1/C=C/O[C@@]2(C)Oc3c(C)c(O)c4c(O)c(c(/C=N/N5CCN(C)CC5)c(O)c4c3C2=O)NC(=O)/C(C)=C\C=C\[C@H](C)[C@H](O)[C@@H](C)[C@@H](O)[C@@H](C)[C@H](OC(C)=O)[C@@H]1C [Rifampin]
MIC (S. aureus SA1199 [2]; Staphylococcus aureus, SA1199): 0.009 µg/mL
MBC (S. aureus SA1199 [2]; [4]): 0.06 µg/mL
MBC^b = MBC in the presence of 5 μg/ml of INF 401 (S. aureus SA1199 [2]; [6]): 0.0019
MIC (S. aureus ATCC 29213; Staphylococcus aureus, ATCC29213, planktonic population): 0.0075 µg/mL
MBEC (S. aureus ATCC 29213; biofilm population): >2 µg/mL

CN(C)[C@@H]1C(O)=C(C(N)=O)C(=O)[C@@]2(O)C(O)=C3C(=O)c4c(O)cccc4[C@@](C)(O)[C@H]3C[C@@H]12 [Tetracycline]
MBC (S. aureus SA1199 [2]; [4]): 8 µg/mL
MBC (S. aureus SA1199 [2]; [5]): > 8 µg/mL
MBC^b = MBC in the presence of 5 μg/ml of INF 401 (S. aureus SA1199 [2]; [6]): 0.25
bactericidal concentration in the absence of INF 401 as multiple of MIC (S. pneumoniae): 4 ×MIC
MBC^b = MBC in the presence of 10 μg/ml of INF 402 (S. aureus SA1199 [3]): 2
reduction in cell viability, antibiotic in combination with INF 401 (S. aureus (SA1199); antibiotic 1×MIC + 5 μg/ml INF 401): 3 log10

COc1cc(Cc2cnc(N)nc2N)cc(OC)c1OC [Trimethroprim]
MBC^a = MBC in the absence of INF 401 (S. aureus SA1199 [2]; Table 1, S. aureus SA1199, antibiotic alone, unit inferred): 32 µg/mL
MBC^b = MBC in the presence of 5 μg/ml of INF 401 (S. aureus SA1199 [2]; [6]): 8
MIC (S. aureus SA1199 [2]; [6]): 1

CCOc1cccc(/C=N/NC(=O)Cc2ccc(C)cc2)c1O [drawing 37]
^55Fe Accm. (S. aureus SA 29213): 1,200 DPM
Activity (minimal concentration required to kill 99.9% of S. aureus) (S. aureus strain SA1199): >10 µg/mL

CCOc1cccc(/C=N/NC(=O)Cc2ccc(C)cc2)c1O [drawing 38]
^55Fe Accm. (S. aureus SA 29213): 17,400 DPM
Activity (minimal concentration required to kill 99.9% of S. aureus) (S. aureus strain SA1199): 1.25 µg/mL

— patent publication US20050043369A1, “Bactericidal antimicrobial methods and compositions for use in treating gram positive infections” (Protez Pharmaceuticals Inc., priority 2000, published 2005)
